According to patent US20150105252A1, “SUBSTITUTED PYRAZOLES AS HERBICIDES” (E I DU PONT DE NEMOURS AND COMPANY, priority 2013, published 2015):

How the values were obtained:
corn = assay: Test A postemergence; format: in vivo, Zea mays
Procedure, shortened: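 Pre- and postemergence greenhouse test; loam+sand; cpd in non-phytotox. solvent/surfactant; post at 1–2 leaf, 2–10 cm; visual score ~10 d, 0 = none, 100 = complete control.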

sedge, umbrella = assay: Test B flood; format: in vivo, Cyperus difformis; conditions: 250 g ai/ha, visual rating on 0 to 100 scale (0 no effect, 100 complete control), 13 to 15 days
Procedure, shortened: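 Visual ratings on a 0–100 scale, where 0 means no effect and 100 means complete control, were assigned by comparison with controls 13 to 15 days after treatment. Compounds went into paddy water over 2-leaf plants flooded to 3 cm.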

ryegrass, Italian = assay: Test C preemergence; format: in vivo, Lolium multiflorum; conditions: for Ryegrass, Italian plant response rating: scale 0 to 100 (0 no effect, 100 complete control)
Procedure, shortened: (§1)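 Postemergence values come from plants sprayed at the 1- to 4-leaf stage (2–18 cm) in peat moss–vermiculite medium; preemergence values from seeds treated in a loam–sand blend. Both evaluated visually against controls after 13–15 greenhouse days, scale 0–100.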

galium = assay: Test C preemergence; format: in vivo, Galium aparine; conditions: for Galium plant response rating: scale 0 to 100 (0 no effect, 100 complete control)
Procedure, shortened: as §1

crabgrass, large = assay: Test C preemergence; format: in vivo, Digitaria sanguinalis; conditions: for Crabgrass, Large plant response rating: scale 0 to 100 (0 no effect, 100 complete control)
Procedure, shortened: as §1

wheat = assay: Test C postemergence; format: in vivo, Triticum aestivum
Procedure, shortened: as §1

foxtail, giant = assay: Test C postemergence; format: in vivo, Setaria faberii
Procedure, shortened: as §1

morningglory = assay: Test C postemergence; format: in vivo, Ipomoea coccinea
Procedure, shortened: as §1

pigweed = assay: Test C postemergence; format: in vivo, Amaranthus retroflexus
Procedure, shortened: as §1

ragweed = assay: Test C postemergence; format: in vivo, Ambrosia elation
Procedure, shortened: as §1

oat, wild = assay: Test C postemergence; format: in vivo, Avena fatua
Procedure, shortened: as §1

chickweed = assay: Test C postemergence; format: in vivo, Stellaria media
Procedure, shortened: as §1

[1] = preemergence, 31 g ai/ha, visual rating, 13 to 15 days
[2] = preemergence, 62 g ai/ha, 13 to 15 days
[3] = preemergence, 125 g ai/ha, 13 to 15 days, scale 0 to 100, 0 = no effect, 100 = complete control
[4] = Postemergence, 31 g ai/ha, visually evaluated after 13 to 15 days
[5] = postemergence, 62 g ai/ha, scale 0 to 100
[6] = postemergence, 250 g ai/ha, scale 0 to 100 (0 no effect, 100 complete control)
[7] = postemergence, 125 g ai/ha, scale 0 to 100, 0 no effect, 100 complete control

CCOc1cc(C(=O)NCC(F)(F)F)nn1Cc1ccnc(OC(F)F)c1 [Compound 128]
Corn plant response rating (corn; Postemergence, 500 g ai/ha, 0 to 100 scale (0 no effect, 100 complete control)): 90 | Corn plant response rating (corn; postemergence, 125 g ai/ha, about 10 days, visual rating on 0 to 100 scale (0 no effect, 100 complete control)): 90 | Plant response rating, Sedge, Umbrella (sedge, umbrella): 90 | Plant response rating (scale of 0 to 100), Ryegrass, Italian (ryegrass, Italian; Preemergence, 250 g ai/ha): 95 | Ryegrass, Italian plant response rating (ryegrass, Italian; [1]): 5 | Ryegrass, Italian plant response rating (ryegrass, Italian; [2]): 70 | Plant response rating, Ryegrass, Italian (ryegrass, Italian; [3]): 90 | Plant response rating (scale of 0 to 100), Galium (galium; Preemergence, 250 g ai/ha): 100 | Galium plant response rating (galium; [1]): 80 | Galium plant response rating (galium; [2]): 80 | Plant response rating, Galium (galium; [3]): 100 | Plant response rating (scale of 0 to 100), Crabgrass, Large (crabgrass, large; Preemergence, 250 g ai/ha): 100 | Crabgrass, Large plant response rating (crabgrass, large; [1]): 100 | Crabgrass, Large plant response rating (crabgrass, large; [2]): 95 | Plant response rating, Crabgrass, Large (crabgrass, large; [3]): 100 | Plant response rating (scale of 0 to 100 where 0 is no effect and 100 is complete control), Wheat (wheat; [4]): 5 | Wheat plant response rating (wheat; [5]): 5 | Plant response rating, Wheat (wheat; [6]): 5 | Plant response rating, Wheat (wheat; [7]): 10 | Plant response rating (scale of 0 to 100 where 0 is no effect and 100 is complete control), Foxtail, Giant (foxtail, giant; [4]): 5 | Foxtail, Giant plant response rating (foxtail, giant; [5]): 10 | Plant response rating, Foxtail, Giant (foxtail, giant; [6]): 85 | Plant response rating, Foxtail, Giant (foxtail, giant; [7]): 25 | Plant response rating (scale of 0 to 100 where 0 is no effect and 100 is complete control), Morningglory (morningglory; [4]): 75 | Morningglory plant response rating (morningglory; [5]): 65 | Plant response rating, Morningglory (morningglory; [6]): 80 | Plant response rating, Morningglory (morningglory; [7]): 45 | Plant response rating (scale of 0 to 100 where 0 is no effect and 100 is complete control), Pigweed (pigweed; [4]): 65 | Pigweed plant response rating (pigweed; [5]): 70 | Plant response rating, Pigweed (pigweed; [6]): 90 | Plant response rating, Pigweed (pigweed; [7]): 65 | Plant response rating (scale of 0 to 100 where 0 is no effect and 100 is complete control), Ragweed (ragweed; [4]): 50 | Ragweed plant response rating (ragweed; [5]): 40 | Plant response rating, Ragweed (ragweed; [6]): 85 | Plant response rating, Ragweed (ragweed; [7]): 85 | Plant response rating (scale of 0 to 100 where 0 is no effect and 100 is complete control), Oat, Wild (oat, wild; [4]): 5 | Oat, Wild plant response rating (oat, wild; [5]): 10 | Plant response rating, Oat, Wild (oat, wild; [6]): 20 | Plant response rating, Oat, Wild (oat, wild; [7]): 25 | Plant response rating (scale of 0 to 100 where 0 is no effect and 100 is complete control), Chickweed (chickweed; [4]): 70 | Chickweed plant response rating (chickweed; [5]): 75 | Plant response rating, Chickweed (chickweed; [6]): 95 | Plant response rating, Chickweed (chickweed; [7]): 85
